Measured values: ChEMBL document CHEMBL3885881, “DrugMatrix”

Organism: Rattus norvegicus
Assay: DrugMatrix - Regimen: Daily Repeat
Type: toxicity, organism-based, Sprague-Dawley
Set-up: regimen Daily Repeat, gender Male, age 6-8 weeks
Conditions: in vivo, po, route oral GAVAGE, vehicle 100 % WATER; for ABSOLUTE BASOPHIL / ABSOLUTE EOSINOPHIL / ABSOLUTE LYMPHOCYTE / ABSOLUTE MONOCYTE / ABSOLUTE SEGMENTED NEUTROPHIL / BASOPHIL / EOSINOPHIL / ERYTHROCYTE COUNT / HEMATOCRIT / HEMOGLOBIN / LEUKOCYTE COUNT / LYMPHOCYTE / MEAN CORPUSCULAR HEMOGLOBIN / MEAN CORPUSCULAR HEMOGLOBIN CONCENTRATION / MEAN CORPUSCULAR VOLUME / MONOCYTE / NEUTROPHIL / NUCLEATED RED BLOOD CELLS / PLATELET COUNT: tissue Blood; for ALANINE AMINOTRANSFERASE / ALBUMIN / ALKALINE PHOSPHATASE / ASPARTATE AMINOTRANSFERASE / BLOOD UREA NITROGEN / CARBON DIOXIDE / CHLORIDE / CHOLESTEROL / CREATINE PHOSPHOKINASE / CREATININE / GLUCOSE / LACTATE DEHYDROGENASE / LIPASE / PHOSPHORUS / POTASSIUM / SODIUM / TOTAL BILIRUBIN / TOTAL PROTEIN / URIC ACID: tissue Plasma
[1] = 60 mg/kg, 120 h, dose level Low, time 5 day
[2] = 1300 mg/kg, 72 h, dose level High, time 3 day
[3] = 1300 mg/kg, 120 h, dose level High, time 5 day

CC(C)C[C@H](NC(=O)[C@@H](O)[C@H](N)Cc1ccccc1)C(=O)O [UBENIMEX]
ABSOLUTE BASOPHIL [1]: 0 CELLS/uL | ABSOLUTE EOSINOPHIL [1]: 0 CELLS/uL | ABSOLUTE LYMPHOCYTE [1]: 15131 CELLS/uL | ABSOLUTE MONOCYTE [1]: 122 CELLS/uL | ABSOLUTE SEGMENTED NEUTROPHIL [1]: 847 CELLS/uL | BASOPHIL [1]: 0% | EOSINOPHIL [1]: 0% | ERYTHROCYTE COUNT [1]: 5.87 x10E6/uL | HEMATOCRIT [1]: 36.17% | HEMOGLOBIN [1]: 14.03 G/DL | LEUKOCYTE COUNT [1]: 16.1 x10E3/uL | LYMPHOCYTE [1]: 94.33% | MEAN CORPUSCULAR HEMOGLOBIN [1]: 23.9 pg | MEAN CORPUSCULAR HEMOGLOBIN CONCENTRATION [1]: 38.77 G/DL | MEAN CORPUSCULAR VOLUME [1]: 61.53 fL | MONOCYTE [1]: 0.67% | NEUTROPHIL [1]: 5% | NUCLEATED RED BLOOD CELLS [1]: 0 /100WBC | PLATELET COUNT [1]: 1187.67 x10E3/uL | ALANINE AMINOTRANSFERASE [1]: 53.33 u/L | ALBUMIN [1]: 4.3 G/DL | ALKALINE PHOSPHATASE [1]: 289.33 u/L | ASPARTATE AMINOTRANSFERASE [1]: 93.33 u/L | BLOOD UREA NITROGEN [1]: 16.33 mg/dL | CARBON DIOXIDE [1]: 23.67 mmol/L | CHLORIDE [1]: 105 MEQ/L | CHOLESTEROL [1]: 62.33 mg/dL | CREATINE PHOSPHOKINASE [1]: 463.33 u/L | CREATININE [1]: 0.26 mg/dL | GLUCOSE [1]: 146.33 mg/dL | LACTATE DEHYDROGENASE [1]: 498.67 u/L | LIPASE [1]: 9 u/L | PHOSPHORUS [1]: 11.2 mg/dL | POTASSIUM [1]: 5.71 MEQ/L | SODIUM [1]: 144.27 MEQ/L | TOTAL BILIRUBIN [1]: 0.13 mg/dL | TOTAL PROTEIN [1]: 6.1 G/DL | URIC ACID [1]: 1.37 mg/dL | ABSOLUTE BASOPHIL [2]: 0 CELLS/uL | ABSOLUTE EOSINOPHIL [2]: 88 CELLS/uL | ABSOLUTE LYMPHOCYTE [2]: 12244.33 CELLS/uL | ABSOLUTE MONOCYTE [2]: 144 CELLS/uL | ABSOLUTE SEGMENTED NEUTROPHIL [2]: 1690.33 CELLS/uL | BASOPHIL [2]: 0% | EOSINOPHIL [2]: 0.67% | ERYTHROCYTE COUNT [2]: 5.72 x10E6/uL | HEMATOCRIT [2]: 34.83% | HEMOGLOBIN [2]: 14.07 G/DL | LEUKOCYTE COUNT [2]: 14.17 x10E3/uL | LYMPHOCYTE [2]: 86.33% | MEAN CORPUSCULAR HEMOGLOBIN [2]: 24.63 pg | MEAN CORPUSCULAR HEMOGLOBIN CONCENTRATION [2]: 40.37 G/DL | MEAN CORPUSCULAR VOLUME [2]: 60.93 fL | MONOCYTE [2]: 1% | NEUTROPHIL [2]: 12% | NUCLEATED RED BLOOD CELLS [2]: 0 /100WBC | PLATELET COUNT [2]: 1238.33 x10E3/uL | ALANINE AMINOTRANSFERASE [2]: 54.33 u/L | ALBUMIN [2]: 4 G/DL | ALKALINE PHOSPHATASE [2]: 304.33 u/L | ASPARTATE AMINOTRANSFERASE [2]: 87 u/L | BLOOD UREA NITROGEN [2]: 14 mg/dL | CARBON DIOXIDE [2]: 23.67 mmol/L | CHLORIDE [2]: 102.33 MEQ/L | CHOLESTEROL [2]: 63.33 mg/dL | CREATINE PHOSPHOKINASE [2]: 350.33 u/L | CREATININE [2]: 0.18 mg/dL | GLUCOSE [2]: 197.67 mg/dL | LACTATE DEHYDROGENASE [2]: 237.33 u/L | LIPASE [2]: 9 u/L | PHOSPHORUS [2]: 10.53 mg/dL | POTASSIUM [2]: 5.18 MEQ/L | SODIUM [2]: 142.5 MEQ/L | TOTAL BILIRUBIN [2]: 0.17 mg/dL | TOTAL PROTEIN [2]: 5.7 G/DL | URIC ACID [2]: 1.27 mg/dL | ABSOLUTE BASOPHIL [3]: 0 CELLS/uL | ABSOLUTE EOSINOPHIL [3]: 28.67 CELLS/uL | ABSOLUTE LYMPHOCYTE [3]: 12669 CELLS/uL | ABSOLUTE MONOCYTE [3]: 277.67 CELLS/uL | ABSOLUTE SEGMENTED NEUTROPHIL [3]: 1191.33 CELLS/uL | BASOPHIL [3]: 0% | EOSINOPHIL [3]: 0.33% | ERYTHROCYTE COUNT [3]: 5.82 x10E6/uL | HEMATOCRIT [3]: 35.73% | HEMOGLOBIN [3]: 14.33 G/DL | LEUKOCYTE COUNT [3]: 14.17 x10E3/uL | LYMPHOCYTE [3]: 89.67% | MEAN CORPUSCULAR HEMOGLOBIN [3]: 24.6 pg | MEAN CORPUSCULAR HEMOGLOBIN CONCENTRATION [3]: 40.17 G/DL | MEAN CORPUSCULAR VOLUME [3]: 61.37 fL | MONOCYTE [3]: 2% | NEUTROPHIL [3]: 8% | NUCLEATED RED BLOOD CELLS [3]: 0 /100WBC | PLATELET COUNT [3]: 1144.33 x10E3/uL | ALANINE AMINOTRANSFERASE [3]: 48.33 u/L | ALBUMIN [3]: 4.23 G/DL | ALKALINE PHOSPHATASE [3]: 308.67 u/L | ASPARTATE AMINOTRANSFERASE [3]: 76.67 u/L | BLOOD UREA NITROGEN [3]: 16.67 mg/dL | CARBON DIOXIDE [3]: 25.67 mmol/L | CHLORIDE [3]: 108.67 MEQ/L | CHOLESTEROL [3]: 58.33 mg/dL | CREATINE PHOSPHOKINASE [3]: 244.67 u/L | CREATININE [3]: 0.23 mg/dL | GLUCOSE [3]: 155.67 mg/dL | LACTATE DEHYDROGENASE [3]: 228.67 u/L | LIPASE [3]: 10 u/L | PHOSPHORUS [3]: 9.27 mg/dL | POTASSIUM [3]: 6.1 MEQ/L | SODIUM [3]: 150.27 MEQ/L | TOTAL BILIRUBIN [3]: 0.2 mg/dL | TOTAL PROTEIN [3]: 6.03 G/DL | URIC ACID [3]: 1.53 mg/dL
